Experimental data from patent US8461329B2, “Isoquinoline derivative” (Taisho Pharmaceutical Co., Ltd., priority 2008, dated 2013).
Like-named read-outs stand apart in the source and are kept apart here.

Columns and labels:
CRTH2 (KB8 cells) = molecular target: T1, CRTH2 (KB8 cells) (Homo sapiens, UniProt Q9Y5Y4); assay: CRTH2 antagonist test (PGD2-induced intracellular calcium ion concentration increase in KB8 cells); assay type: cell-based; details: PGD2 final concentration 100 nM, Fluo-4-AM fluorescence, read-out: antagonist activity (IC50 value, inhibition of calcium ion concentration increase)
T1 construct: host or cells: KB8 cells (human CRTH2 expression cell)
T1 sequence (Q9Y5Y4 1-395): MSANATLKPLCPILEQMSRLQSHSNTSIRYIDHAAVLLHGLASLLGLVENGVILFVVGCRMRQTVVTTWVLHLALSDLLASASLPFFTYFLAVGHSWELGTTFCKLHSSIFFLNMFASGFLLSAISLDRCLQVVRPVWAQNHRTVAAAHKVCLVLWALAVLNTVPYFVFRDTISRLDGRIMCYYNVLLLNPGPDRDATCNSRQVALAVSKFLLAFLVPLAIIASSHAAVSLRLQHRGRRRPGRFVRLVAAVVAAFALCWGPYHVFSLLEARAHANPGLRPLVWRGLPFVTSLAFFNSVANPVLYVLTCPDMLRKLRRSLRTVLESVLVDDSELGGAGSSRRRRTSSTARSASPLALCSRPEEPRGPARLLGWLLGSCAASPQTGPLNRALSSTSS
Outline: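 Fluo-4-AM-loaded KB8 cells in HBSS with 10 mM HEPES and 1 mM CaCl2 received compound plus PGD2 (final 100 nM); peak fluorescence followed over time. Inhibition was computed against no-compound and unlabelled-PGD2 controls, and IC50 obtained from a dose-response curve.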

[1] = molecular target: T2, human CRTH2 expression cell KB8 (Homo sapiens, UniProt Q9Y5Y4); assay: CRTH2 binding test (3H-PGD2 binding to KB8 cells); details: 3H-PGD2 5 nM, 4° C., one hour
T2 construct: host or cells: KB8 cells (human CRTH2 expression cell)
T2 sequence (Q9Y5Y4 1-395): T1 sequence (Q9Y5Y4 1-395)
Method: CRTH2 binding inhibitory activity of the compound of the present invention was considered by using a binding test between human CRTH2 expression cell KB8 (BML, INC.) and ^3H-labeled prostaglandin D2 (hereinafter, abbreviated as ^3H-PGD2, manufactured by GE Healthcare).
KB8 was suspended in a reaction buffer solution (Hank's balanced salt solution (Invitrogen) containing 10 mM HEPES (Invitrogen)), which was dispensed in a 96 well plate (Coaster) so that 2×10^5 cells/well are placed. Furthermore, the compound of the present invention and ^3H-PGD2 (final concentration: 5 nM) were added, stirred, and incubated at 4° C.
One hour later, cells were collected on GF/C Filter Plate (PerkinElmer) that had been pre-coated with 0.5% polyethyleneimine solution (SIGMA) by using a Cell Harvester (Packard BioScience), and the radioactivity of the cells was measured by using Top count NXT (PerkinElmer) (a value measured herein was represented by a measurement value “a”). The same procedure was carried out in the absence of the compound, and a measurement value “b” was obtained; and the same procedure was carried out in the absence of the compound and in the presence of non-labeled PGD2 (final concentration: 50 μM), a measurement value “c” was obtained.
The binding inhibition rate of the compound was calculated by the following calculation formula: Bonding inhibitory rate(%)=[1−(a−c)/(b−c)]×100
That is to say, by using binding inhibition rates of compounds to be tested having various concentrations, the IC50 value was calculated according to a dose-dependent inhibition curve analyzed by using XLfit (IDBS) as a data analysis software, and the calculated value was defined as an indicator of the inhibitory activity. In Table 9, A denotes an inhibitory activity showing the IC50 value of less than 50 nM; B denotes an inhibitory activity showing the IC50 value of 50 nM or greater and less than 500 nM; C denotes an inhibitory activity showing the IC50 value of 500 nM or greater and less than 1000 nM; and D denotes an inhibitory activity showing the IC50 value of 1000 nM or greater.

[2] = IC50 class, read-out: binding inhibitory activity
[3] = read-out: CRTH2 binding inhibitory activity IC50 value

Row | Compound | IC50 (CRTH2 (KB8 cells)) | IC50 [1, 2] | IC50 [1, 3]
1 | CC(C)(C)OC(=O)Nc1ccc(C(=O)c2ncc(CC(=O)O)c3ccccc23)cc1 [Example 1, [1-({4-[(tert-butoxycarbonyl)amino]phenyl}carbonyl)isoquinolin-4-yl]acetic acid] | 50 to 500 nM | < 50 nM | 
2 | O=C(O)Cc1cnc(C(=O)c2ccc(NC(=O)c3ccc(Cl)c(Cl)c3)cc2)c2ccccc12 [Example 2, {1-[(4-{[(3,4-dichlorophenyl)carbonyl]amino}phenyl)carbonyl]isoquinolin-4-yl}acetic acid] | < 50 nM | < 50 nM | 
3 | O=C(O)Cc1cnc(C(=O)c2ccc(NC(=O)Cc3ccc(Cl)c(Cl)c3)cc2)c2ccccc12 [Example 3] | < 50 nM | < 50 nM | 
4 | O=C(O)Cc1cnc(C(=O)c2ccc(NC(=O)CCc3ccc(Cl)c(Cl)c3)cc2)c2ccccc12 [Example 4] | < 50 nM | < 50 nM | 
5 | O=C(O)Cc1cnc(C(=O)c2ccc(NC(=O)C3(c4ccc(Cl)c(Cl)c4)CC3)cc2)c2ccccc12 [Example 5] | 50 to 500 nM | < 50 nM | 
6 | O=C(O)Cc1cnc(C(=O)c2ccc(NC(=O)/C=C/c3ccc(Cl)c(Cl)c3)cc2)c2ccccc12 [Example 6] | < 50 nM | < 50 nM | 
7 | COc1ccc(C(=O)Nc2ccc(C(=O)c3ncc(CC(=O)O)c4ccccc34)cc2)cc1 [Example 7] | < 50 nM | < 50 nM | 
8 | O=C(O)Cc1cnc(C(=O)c2ccc(NC(=O)c3ccc(OC(F)(F)F)cc3)cc2)c2ccccc12 [Example 8] | < 50 nM | < 50 nM | 
9 | O=C(O)Cc1cnc(C(=O)c2ccc(NC(=O)c3ccc(Oc4ccccc4)cc3)cc2)c2ccccc12 [Example 9] | 50 to 500 nM | < 50 nM | 
10 | O=C(O)Cc1cnc(C(=O)c2ccc(NC(=O)c3ccc(-c4ccccc4)cc3)cc2)c2ccccc12 [Example 10] | < 50 nM | < 50 nM | 
11 | O=C(O)Cc1cnc(C(=O)c2ccc(NC(=O)c3ccc(C(F)(F)F)cc3)cc2)c2ccccc12 [Example 11] | < 50 nM | < 50 nM | 
12 | CN(C)c1ccc(C(=O)Nc2ccc(C(=O)c3ncc(CC(=O)O)c4ccccc34)cc2)cc1 [Example 12] | < 50 nM | < 50 nM | 
13 | N#Cc1ccc(C(=O)Nc2ccc(C(=O)c3ncc(CC(=O)O)c4ccccc34)cc2)cc1 [Example 13] | ≥ 1000 nM | < 50 nM | 
14 | O=C(O)Cc1cnc(C(=O)c2ccc(NC(=O)c3ccc4ccccc4c3)cc2)c2ccccc12 [Example 14] | < 50 nM | < 50 nM | 
15 | O=C(O)Cc1cnc(C(=O)c2ccc(NC(=O)c3ccc([N+](=O)[O-])cc3)cc2)c2ccccc12 [Example 15] | < 50 nM | < 50 nM | 
16 | O=C(O)Cc1cnc(C(=O)c2ccc(NC(=O)c3ccccn3)cc2)c2ccccc12 [Example 16] |  | < 50 nM | 
17 | Cc1ccc(C(=O)Nc2ccc(C(=O)c3ncc(CC(=O)O)c4ccccc34)cc2)cc1 [Example 17] | < 50 nM | < 50 nM | 
18 | O=C(O)Cc1cnc(C(=O)c2ccc(NC(=O)c3cc4ccccc4[nH]3)cc2)c2ccccc12 [Example 18] | < 50 nM | < 50 nM | 3.5 nM
19 | CC(=O)Nc1ccc(C(=O)c2ncc(CC(=O)O)c3ccccc23)cc1 [Example 19] |  | 50 to 500 nM | 
20 | O=C(O)Cc1cnc(C(=O)c2ccc(NC(=O)C3CC3)cc2)c2ccccc12 [Example 20] |  | < 50 nM | 
21 | O=C(O)Cc1cnc(C(=O)c2ccc(NC(=O)CC3CCCCC3)cc2)c2ccccc12 [Example 21] | 50 to 500 nM | < 50 nM | 

Row | Compound | IC50 (CRTH2 (KB8 cells)) | IC50 [1, 2] | IC50 [1, 3]
22 | O=C(O)Cc1cnc(C(=O)c2ccc(NC(=O)Cc3ccc(-c4ccccc4)cc3)cc2)c2ccccc12 [Example 22] | 50 to 500 nM | < 50 nM | 
23 | O=C(O)Cc1cnc(C(=O)c2ccc(NC(=O)COc3ccc(Cl)c(Cl)c3)cc2)c2ccccc12 [Example 23] | < 50 nM | < 50 nM | 
24 | O=C(O)Cc1cnc(C(=O)c2ccc(NC(=O)c3cccc(Cl)c3)cc2)c2ccccc12 [Example 27] | < 50 nM | < 50 nM | 
25 | O=C(O)Cc1cnc(C(=O)c2ccc(NC(=O)c3ccc(Cl)cc3)cc2)c2ccccc12 [Example 29] | < 50 nM | < 50 nM | 
26 | O=C(O)Cc1cnc(C(=O)c2ccc(NC(=O)c3ccc(F)c(Cl)c3)cc2)c2ccccc12 [Example 34] | < 50 nM | < 50 nM | 
27 | O=C(O)Cc1cnc(C(=O)c2ccc(NC(=O)c3cc4ccccc4o3)cc2)c2ccccc12 [Example 50] | < 50 nM | < 50 nM | 
28 | CCCCCc1ccc(C(=O)Nc2ccc(C(=O)c3ncc(CC(=O)O)c4ccccc34)cc2)cc1 [Example 57] | < 50 nM | < 50 nM | 3.4 nM
29 | O=C(O)Cc1cnc(C(=O)c2ccc(NC(=O)c3cccc(Br)c3)cc2)c2ccccc12 [Example 75] | < 50 nM | < 50 nM | 2.9 nM
30 | O=C(O)Cc1cnc(C(=O)c2ccc(NC(=O)C3CCC(c4ccc(Cl)cc4)CC3)cc2)c2ccccc12 (stereo not shown) [Example 82] | < 50 nM | < 50 nM | 2.8 nM
31 | O=C(O)Cc1cnc(C(=O)c2ccc(NC(=O)/C=C/c3ccc(F)cc3)cc2)c2ccccc12 [Example 83] | < 50 nM | < 50 nM | 
32 | O=C(O)Cc1cnc(C(=O)c2ccc(NC(=O)c3cc4cc(Cl)ccc4[nH]3)cc2)c2ccccc12 [Example 92] | < 50 nM | < 50 nM | 
33 | O=C(O)Cc1cnc(C(=O)c2cccc(NC(=O)c3ccc(Cl)c(Cl)c3)c2)c2ccccc12 [Example 127, {1-[(3-{[(3,4-dichlorophenyl)carbonyl]amino}phenyl)carbonyl]isoquinolin-4-yl}acetic acid] |  | 50 to 500 nM | 
34 | CN(C(=O)c1ccc(Cl)c(Cl)c1)c1ccc(C(=O)c2ncc(CC(=O)O)c3ccccc23)cc1 [Example 128, {1-[(4-{[(3,4-dichlorophenyl)carbonyl](methyl)amino}phenyl)carbonyl]isoquinolin-4-yl}acetic acid] |  | 50 to 500 nM | 
35 | O=C(O)Cc1cnc(C(=O)c2ccc(NS(=O)(=O)c3ccc(Cl)c(Cl)c3)cc2)c2ccccc12 [Example 129, {1-[(4-{[(3,4-dichlorophenyl)sulfonyl]amino}phenyl)carbonyl]isoquinolin-4-yl}acetic acid] |  | 50 to 500 nM | 
36 | O=C(O)Cc1cnc(C(=O)c2ccc(NC(=O)Nc3ccc(Cl)c(Cl)c3)cc2)c2ccccc12 [Example 130, {1-[(4-{[(3,4-dichlorophenyl)carbamoyl]amino}phenyl)carbonyl]isoquinolin-4-yl}acetic acid] | < 50 nM | < 50 nM | 
37 | O=C(O)Cc1cnc(C(=O)c2ccc(NC(=O)OCc3ccc(Cl)c(Cl)c3)cc2)c2ccccc12 [Example 131, (1-{[4-({[(3,4-dichlorobenzyl)oxy]carbonyl}amino)phenyl]carbonyl}isoquinolin-4-yl)acetic acid] | < 50 nM | < 50 nM | 
38 | O=C(O)Cc1cnc(C(=O)c2ccc(NC(=O)NCc3ccc(Cl)c(Cl)c3)cc2)c2ccccc12 [Example 132, {1-[(4-{[(3,4-dichlorobenzyl)carbamoyl]amino}phenyl)carbonyl]isoquinolin-4-yl}acetic acid] | 50 to 500 nM | < 50 nM | 
39 | O=C(O)Cc1cnc(C(=O)c2ccc(NCc3ccc(Cl)c(Cl)c3)cc2)c2ccccc12 [Example 133, [1-({4-[(3,4-dichlorobenzyl)amino]phenyl}carbonyl)isoquinolin-4-yl]acetic acid] | < 50 nM | < 50 nM | 
40 | O=C(O)Cc1cnc(C(=O)c2ccc(OCc3ccc(Cl)c(Cl)c3)cc2)c2ccccc12 [Example 134, [1-({4-[(3,4-dichlorobenzyl)oxy]phenyl}carbonyl)isoquinolin-4-yl]acetic acid] | 50 to 500 nM | < 50 nM | 
41 | O=C(O)Cc1cnc(C(=O)c2ccc(Cc3ccccc3)cc2)c2ccccc12 [Example 144, {1-[(4-benzyl phenyl)carbonyl]isoquinolin-4-yl}acetic acid] |  | 50 to 500 nM | 
